Test results from patent US20110086759A1, “CHEMICAL COMPOUNDS” (SYNGENTA CROP PROTECTION, INC., priority 2007, published 2011).

Key:
Assay type in all cases: in vivo
[1] = system: Alopecurus myosuroides (ALOMY); experiment: Pre-emergence biological efficacy, glasshouse pot test; settings: 312 h
Method in brief: (§1)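 Damage was rated on a 0–100 scale 13 days after treatment, with plants kept at 24/16° C, 14 h light and 65% humidity. The pre-emergence spray, at 1000 or 250 g/ha in acetone/water 50:50 with 0.5% Tween 20, was applied one day after sowing.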

[2] = system: Amaranthus retoflexus (AMARE); experiment: as above; settings: Amaranthus retroflexus, 312 h
Method in brief: as §1

[3] = system: Echinochloa crus-galli (ECHCG); experiment: as above; settings: 312 h
Method in brief: as §1

[4] = system: Ipomea hederaceae (IPOHE); experiment: as above; settings: Ipomoea hederacea, 312 h
Method in brief: as §1

[5] = system: Setaria faberi (SETFA); experiment: as above; settings: 312 h
Method in brief: as §1

[6] = system: Solanum nigrum (SOLNI); experiment: as above; settings: 312 h
Method in brief: as §1

[7] = system: Alopecurus myosuroides (ALOMY); experiment: Post-emergence biological efficacy, glasshouse pot test; settings: 312 h
Method in brief: (§2)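 Scored 13 days after spraying on a 0 (no damage) to 100 (total damage) scale. Treatment was a post-emergence spray at 1000 or 250 g/ha, from acetone/water 50:50 plus 0.5% Tween 20, onto 8-day-old plants in soil pots. Growth at 24/16° C, 14 h photoperiod, 65% humidity, watered twice daily.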

[8] = system: Amaranthus retoflexus (AMARE); experiment: as above; settings: Amaranthus retroflexus, 312 h
Method in brief: as §2

[9] = system: Echinochloa crus-galli (ECHCG); experiment: as above; settings: 312 h
Method in brief: as §2

[10] = system: Ipomea hederaceae (IPOHE); experiment: as above; settings: Ipomoea hederacea, 312 h
Method in brief: as §2

[11] = system: Setaria faberi (SETFA); experiment: as above; settings: 312 h
Method in brief: as §2

[12] = system: Solanum nigrum (SOLNI); experiment: as above; settings: 312 h
Method in brief: as §2

[13] = pre-emergence, 1,000 g/ha, evaluated after 13 days (100=total damage; 0=no damage), read-out: Percentage damage ALOMY
[14] = pre-emergence, 1,000 g/ha, evaluated after 13 days (100=total damage; 0=no damage), read-out: Percentage damage AMARE
[15] = pre-emergence, 1,000 g/ha, evaluated after 13 days (100=total damage; 0=no damage), read-out: Percentage damage ECHCG
[16] = pre-emergence, 1,000 g/ha, evaluated after 13 days (100=total damage; 0=no damage), read-out: Percentage damage IPOHE
[17] = pre-emergence, 1,000 g/ha, evaluated after 13 days (100=total damage; 0=no damage), read-out: Percentage damage SETFA
[18] = pre-emergence, 1,000 g/ha, evaluated after 13 days (100=total damage; 0=no damage), read-out: Percentage damage SOLNI
[19] = post-emergence, 1,000 g/ha, evaluated after 13 days (100=total damage; 0=no damage), read-out: Percentage damage caused to weed species, ALOMY
[20] = post-emergence, 1,000 g/ha, evaluated after 13 days (100=total damage; 0=no damage), read-out: Percentage damage caused to weed species, AMARE
[21] = post-emergence, 1,000 g/ha, evaluated after 13 days (100=total damage; 0=no damage), read-out: Percentage damage caused to weed species, ECHCG
[22] = post-emergence, 1,000 g/ha, evaluated after 13 days (100=total damage; 0=no damage), read-out: Percentage damage caused to weed species, IPOHE
[23] = post-emergence, 1,000 g/ha, evaluated after 13 days (100=total damage; 0=no damage), read-out: Percentage damage caused to weed species, SETFA
[24] = post-emergence, 1,000 g/ha, evaluated after 13 days (100=total damage; 0=no damage), read-out: Percentage damage caused to weed species, SOLNI
[25] = pre-emergence, rate 1,000 g/ha, evaluated after 13 days (100=total damage to plant; 0=no damage), read-out: Percentage damage caused to weed species, ALOMY
[26] = pre-emergence, rate 1,000 g/ha, evaluated after 13 days (100=total damage to plant; 0=no damage), read-out: Percentage damage caused to weed species, AMARE
[27] = pre-emergence, rate 1,000 g/ha, evaluated after 13 days (100=total damage to plant; 0=no damage), read-out: Percentage damage caused to weed species, ECHCG
[28] = pre-emergence, rate 1,000 g/ha, evaluated after 13 days (100=total damage to plant; 0=no damage), read-out: Percentage damage caused to weed species, IPOHE
[29] = pre-emergence, rate 1,000 g/ha, evaluated after 13 days (100=total damage to plant; 0=no damage), read-out: Percentage damage caused to weed species, SETFA
[30] = pre-emergence, rate 1,000 g/ha, evaluated after 13 days (100=total damage to plant; 0=no damage), read-out: Percentage damage caused to weed species, SOLNI
[31] = Rate 1,000 g/ha, post-emergence spray, evaluated after 13 days (100=total damage to plant; 0=no damage to plant), read-out: Percentage damage caused to weed species, post-emergence, ALOMY
[32] = Rate 1,000 g/ha, post-emergence spray, evaluated after 13 days (100=total damage to plant; 0=no damage to plant), read-out: Percentage damage caused to weed species, post-emergence, AMARE
[33] = Rate 1,000 g/ha, post-emergence spray, evaluated after 13 days (100=total damage to plant; 0=no damage to plant), read-out: Percentage damage caused to weed species, post-emergence, ECHCG
[34] = Rate 1,000 g/ha, post-emergence spray, evaluated after 13 days (100=total damage to plant; 0=no damage to plant), read-out: Percentage damage caused to weed species, post-emergence, IPOHE
[35] = Rate 1,000 g/ha, post-emergence spray, evaluated after 13 days (100=total damage to plant; 0=no damage to plant), read-out: Percentage damage caused to weed species, post-emergence, SETFA
[36] = Rate 1,000 g/ha, post-emergence spray, evaluated after 13 days (100=total damage to plant; 0=no damage to plant), read-out: Percentage damage caused to weed species, post-emergence, SOLNI

Compound | pest or weed control at 1000 g/ha [1, 13] [%] | pest or weed control at 1000 g/ha [2, 14] [%] | pest or weed control at 1000 g/ha [3, 15] [%] | pest or weed control at 1000 g/ha [4, 16] [%] | pest or weed control at 1000 g/ha [5, 17] [%] | pest or weed control at 1000 g/ha [6, 18] [%] | pest or weed control at 1000 g/ha [7, 19] [%] | pest or weed control at 1000 g/ha [8, 20] [%] | pest or weed control at 1000 g/ha [9, 21] [%] | pest or weed control at 1000 g/ha [10, 22] [%] | pest or weed control at 1000 g/ha [11, 23] [%] | pest or weed control at 1000 g/ha [12, 24] [%] | pest or weed control at 1000 g/ha [1, 25] [%] | pest or weed control at 1000 g/ha [2, 26] [%] | pest or weed control at 1000 g/ha [3, 27] [%] | pest or weed control at 1000 g/ha [4, 28] [%] | pest or weed control at 1000 g/ha [5, 29] [%] | pest or weed control at 1000 g/ha [6, 30] [%] | pest or weed control at 1000 g/ha [7, 31] [%] | pest or weed control at 1000 g/ha [8, 32] [%] | also measured
COC(=O)c1nc(C2CC2)nc(NC2(/C=C/c3ccc(Cl)cc3Cl)CC2)c1Cl [Compound 4-28, 5-Chloro-2-cyclopropyl-4-{1-[2-(2,4-dichloro-phenyl)ethenyl]-cyclopropyl-amino}-6-methoxy-carbonylpyrimidine] | 10 | 90 | 0 | 70 | 10 | 40 | 10 | 100 | 30 | 100 | 50 | 80 | – | – | – | – | – | – | – | – | –
COC(=O)c1nc(C2CC2)nc(N(C)Cc2cc(OC)cc(OC)c2)c1Cl [Compound 5-113, 5-Chloro-2-cyclopropyl-4-[N-(3,5-dimethoxy-phenylmethyl)-N-methyl-amino]-6-methoxycarbonyl-pyrimidine] | – | – | – | – | – | – | – | – | – | – | – | – | 0 | 70 | 0 | 60 | 0 | 10 | 10 | 80 | pest or weed control at 1000 g/ha [9, 33]: 10%; pest or weed control at 1000 g/ha [10, 34]: 70%; pest or weed control at 1000 g/ha [11, 35]: 30%; pest or weed control at 1000 g/ha [12, 36]: 70%
CCOC(=O)C(Nc1nc(C2CC2)nc(C(=O)OC)c1Cl)c1ccccc1 (stereo not drawn) [Compound 4-214, 5-Chloro-2-cyclopropyl-4-[(1-ethoxycarbonyl-1-phenyl)-methyl-amino]-6-methoxy-carbonylpyrimidine] | 20 | 100 | 60 | 100 | 40 | 90 | 50 | 100 | 70 | 100 | 70 | 80 | – | – | – | – | – | – | – | – | –
COC(=O)c1nc(C2CC2)nc(N(C)Cc2cccc(F)c2)c1Cl [Compound 5-65, 5-Chloro-2-cyclopropyl-4-[N-(3-fluorophenylmethyl)-N-methyl-amino]-6-methoxy-carbonylpyrimidine] | – | – | – | – | – | – | – | – | – | – | – | – | 20 | 100 | 10 | 100 | 20 | 90 | 30 | 100 | pest or weed control at 1000 g/ha [9, 33]: 70%; pest or weed control at 1000 g/ha [10, 34]: 90%; pest or weed control at 1000 g/ha [11, 35]: 80%; pest or weed control at 1000 g/ha [12, 36]: 100%
COC(=O)c1nc(C2CC2)nc(NCc2ccco2)c1Cl [Compound 4-125, 5-Chloro-2-cyclopropyl-4-(furan-2-ylmethyl-amino)-6-methoxy-carbonylpyrimidine] | 70 | 100 | 80 | 100 | 80 | 90 | 60 | 100 | 80 | 100 | 90 | 100 | – | – | – | – | – | – | – | – | –
CCN(Cc1cccs1)c1nc(C2CC2)nc(C(=O)OC)c1Cl [Compound 6-140, 5-Chloro-2-cyclopropyl-4-(N-ethyl-N-thiophen-2-ylmethyl-amino)6-methoxycarbonyl-pyrimidine] | – | – | – | – | – | – | – | – | – | – | – | – | 10 | 80 | 20 | 80 | 0 | 30 | 40 | 100 | pest or weed control at 1000 g/ha [9, 33]: 40%; pest or weed control at 1000 g/ha [10, 34]: 100%; pest or weed control at 1000 g/ha [11, 35]: 70%; pest or weed control at 1000 g/ha [12, 36]: 80%
COC(=O)c1nc(C2CC2)nc(NCc2ccc(N(C)C)cc2)c1Cl [Compound 4-87, 5-Chloro-2-cyclopropyl-4-(4-dimethylamino-phenylmethyl-amino)-6-methoxycarbonyl-pyrimidine] | 90 | 100 | 90 | 100 | 90 | 100 | 60 | 100 | 60 | 100 | 100 | 100 | – | – | – | – | – | – | – | – | –
COC(=O)c1nc(C2CC2)nc(NCc2cc(F)c(F)cc2F)c1Cl [Compound 4-120, 5-Chloro-2-cyclopropyl-6-methoxycarbonyl-4-(2,4,5-trifluoro-phenylmethyl-amino)pyrimidine] | 10 | 60 | 20 | 40 | 10 | 50 | 20 | 100 | 60 | 100 | 90 | 100 | – | – | – | – | – | – | – | – | –
